By Ki is commonly meant a dissociation constant, usually derived from enzyme kinetics or from competition with a known ligand.

One test in a line: Displacement of [125I]MCH from MCHR1 expressed in CHO cell membranes assessed as inhibition constant. The arrangement: species or system Cricetulus griseus, Membrane.
Details: not given; call rule not given here
On the technique in general: Loss of bound radioactivity is the signal in a displacement assay; it reports binding, not function.
Turning to `O=C(c1ccc(-c2ccccc2)cc1)N1CCCC12CCCN(Cc1ccc3ccccc3c1)C2` (configuration not stated), the Ki result is reported as “Not Active”.

Staying with this test, now noted: read-out: Ki.
On to `O=C(N[C@@H]1CCN(Cc2ccc3ccccc3c2)C1)c1ccc(Br)cc1`, for which the Ki was determined as 103 nM.

With `O=C(N[C@@H]1CCN(Cc2ccc3ccccc3c2)C1)c1ccc(F)c(F)c1`, the Ki amounted to 208 nM.

In the case of `COc1cc(OC)cc(C(=O)N[C@@H]2CCN(C/C=C/c3ccccc3)C2)c1`, the Ki was determined as 17 nM.

In the case of `O=C(N[C@@H]1CCN(Cc2ccc3ccccc3c2)C1)c1ccc(F)c(Cl)c1`, the Ki was found to be 136 nM.

Regarding `O=C(N[C@@H]1CCN(Cc2ccc3ccccc3c2)C1)c1ccc(-c2ccc(C(F)(F)F)cc2)s1`, the Ki was determined as 3080 nM.

Turning to `COc1cc(OC)cc(C(=O)NC[C@H]2CCN(Cc3ccc4ccccc4c3)C2)c1`, the inhibition constant Ki was determined as 105 nM.

For the compound `O=C(COc1ccc(Cl)cc1)N1CCC2(CCCN(Cc3ccc4c(c3)OCO4)C2)C1` (configuration not stated), the Ki came to 2560 nM.

In the case of `COc1cc(NC(=O)CC2CCCN(Cc3ccc4ccccc4c3)C2)cc(OC)c1` (configuration not stated), the Ki was 1690 nM.

Consider `COc1cc(OC)cc(C(=O)N[C@@H]2CCN(Cc3ccc4c(c3)OCO4)C2)c1`, for which the Ki was 61.8 nM.

As to `O=C(N[C@@H]1CCN(Cc2ccc3ccccc3c2)C1)c1ccc(-c2ccc(F)cc2)cc1`, the inhibition constant (Ki) was found to be 1840 nM.

`Cc1ccc2c(C)c(C(=O)N[C@@H]3CCN(Cc4ccc5ccccc5c4)C3)oc2c1`: the inhibition constant Ki worked out at 2640 nM.

On to `O=C(N[C@@H]1CCN(Cc2ccc3ccccc3c2)C1)c1ccccc1`, for which the Ki came to 448 nM.

Regarding `COc1cc(OC)cc(C(=O)N2CCC3(CCCN(Cc4ccc5ccccc5c4)C3)C2)c1` (configuration not stated), the Ki came to 330 nM.

With `O=C(COc1ccc(Cl)cc1)N1CCCC12CCCN(Cc1ccc3ccccc3c1)C2` (configuration not stated), the Ki is 2610 nM.

For `O=C(c1ccc(F)c(F)c1)N1CCC2(CCCN(Cc3ccc4ccccc4c3)C2)C1` (configuration not stated), the Ki worked out at 1900 nM.

With `O=C(c1ccc(F)c(Cl)c1)N1CCC2(CCCN(Cc3ccc4c(c3)OCO4)C2)C1` (configuration not stated), the Ki came to 2500 nM.

`O=C(COc1ccc(Cl)cc1)N[C@@H]1CCN(Cc2ccc3ccccc3c2)C1`: the Ki is 271 nM.

Turning to `COc1cc(OC)cc(C(=O)N[C@@H]2CCN(Cc3ccc4ccccc4c3)C2)c1`, the Ki is 7 nM.

As for `COc1cccc(-c2ccc(C(=O)N[C@@H]3CCN(Cc4ccc5ccccc5c4)C3)cc2)c1`, the Ki is 4190 nM.

As for `O=C(/C=C/c1ccc(F)cc1)N[C@@H]1CCN(Cc2ccc3ccccc3c2)C1`, the Ki came out at 936 nM.

With `O=C(N[C@@H]1CCN(Cc2ccc3ccccc3c2)C1)c1ccc(Br)s1`, the Ki worked out at 202 nM.

The values above are taken from ChEMBL document CHEMBL5252590, “Structure-based design of novel melanin-concentrating hormone receptor-1 ligands based on saturated nitrogen-containing heterocycles” (Bioorg Med Chem Lett, 2023).
